Experimental data as given in patent US10358427B2, “Modulators of indoleamine 2,3-dioxygenase” (GLAXOSMITHKLINE INTELLECTUAL PROPERTY DEVELOPMENT LIMITED, priority 2015, dated 2019).

Columns and labels:
[1] = target: T1, indoleamine 2, 3-dioxygenase (IDO1) (Homo sapiens, UniProt P14902); experiment: HeLa IDOi assay (kynurenine detection via mass spectrometry); format: cell-based; design: human epithelial HeLa cells (CCL-2; host or cells: HeLa cells stimulated with human IFN-γ; details: human epithelial HeLa cells stimulated with IFN-γ; kynurenine by mass spectrometry; 2 days incubation
Experimental: (§1) Compounds of the present invention were tested via high-throughput cellular assays utilizing detection of kynurenine via mass spectrometry and cytotoxicity as end-points. For the mass spectrometry and cytotoxicity assays, human epithelial HeLa cells (CCL-2; ATCC®, Manassas, Va.) were stimulated with human interferon-γ (IFN-γ) (Sigma-Aldrich Corporation, St. Louis, Mo.) to induce the expression of indoleamine 2, 3-dioxygenase (IDO1). Compounds with IDO1 inhibitory properties decreased the amount of kynurenine produced by the cells via the tryptophan catabolic pathway. Cellular toxicity due to the effect of compound treatment was measured using CellTiter-Glo® reagent (CTG) (Promega Corporation, Madison, Wis.), which is based on luminescent detection of ATP, an indicator of metabolically active cells.
(§2) In preparation for the assays, test compounds were serially diluted 3-fold in DMSO from a typical top concentration of 5 mM and plated at 0.5 μL in 384-well, polystyrene, clear bottom, tissue culture treated plates with lids (Greiner Bio-One, Kremsmünster, Austria) to generate 11-point dose response curves. Low control wells (0% kynurenine or 100% cytotoxicity) contained either 0.5 μL of DMSO in the presence of unstimulated (−IFN-γ) HeLa cells for the mass spectrometry assay or 0.5 μL of DMSO in the absence of cells for the cytotoxicity assay, and high control wells (100% kynurenine or 0% cytotoxicity) contained 0.5 μL of DMSO in the presence of stimulated (+IFN-γ) HeLa cells for both the mass spectrometry and cytotoxicity assays.
Frozen stocks of HeLa cells were washed and recovered in DMEM high glucose medium with HEPES (Thermo Fisher Scientific, Inc., Waltham, Mass.) supplemented with 10% v/v certified fetal bovine serum (FBS) (Thermo Fisher Scientific, Inc., Waltham, Mass.), and 1× penicillin-streptomycin antibiotic solution (Thermo Fisher Scientific, Inc., Waltham, Mass.). The cells were diluted to 100,000 cells/mL in the supplemented DMEM medium. 50 μL of either the cell suspension, for the mass spectrometry assay, or medium alone, for the cytotoxicity assay, were added to the low control wells, on the previously prepared 384-well compound plates, resulting in 5,000 cells/well or 0 cells/well respectively. IFN-γ was added to the remaining cell suspension at a final concentration of 10 nM, and 50 μL of the stimulated cells were added to all remaining wells on the 384-well compound plates. The plates, with lids, were then placed in a 37° C., 5% CO2 humidified incubator for 2 days.
(§3) Following incubation, the 384-well plates were removed from the incubator and allowed to equilibrate to room temperature for 30 minutes. For the cytotoxicity assay, CellTiter-Glo® was prepared according to the manufacturer's instructions, and 10 μL were added to each plate well. After a twenty minute incubation at room temperature, luminescence was read on an EnVision® Multilabel Reader (PerkinElmer Inc., Waltham, Mass.). For the mass spectrometry assay, 10 μL of supernatant from each well of the compound-treated plates were added to 40 μL of acetonitrile, containing 10 μM of an internal standard for normalization, in 384-well, polypropylene, V-bottom plates (Greiner Bio-One, Kremsmünster, Austria) to extract the organic analytes. Following centrifugation at 2000 rpm for 10 minutes, 10 μL from each well of the acetonitrile extraction plates were added to 90 μL of sterile, distilled H2O in 384-well, polypropylene, V-bottom plates for analysis of kynurenine and the internal standard on the RapidFire 300 (Agilent Technologies, Santa Clara, Calif.) and 4000 QTRAP MS (SCIEX, Framingham, Mass.). MS data were integrated using Agilent Technologies' RapidFire Integrator software, and data were normalized for analysis as a ratio of kynurenine to the internal standard. […]

[2] = target: T1, indoleamine 2, 3-dioxygenase (IDO1); experiment: PBMC IDOi assay (kynurenine detection via mass spectrometry); format: cell-based; details: human PBMC stimulated with IFN-γ and LPS; kynurenine by mass spectrometry; 2 days incubation
Experimental: as §1, with “peripheral blood mononuclear” for “epithelial HeLa”, “(PBMC) (PB003F; AlICells®, Alameda, Calif.)” for “(CCL-2; ATCC®, Manassas, Va.)”, “Mo.) and lipopolysaccharide from Salmonella minnesota (LPS) (Invivogen, San Diego, Calif.)” for “Mo.)”
as §2, with “(−IFN-γ/−LPS) PBMCs” for “(−IFN-γ) HeLa cells”, “(+IFN-γ/+LPS) PBMCs” for “(+IFN-γ) HeLa cells”
Frozen stocks of PBMCs were washed and recovered in RPMI 1640 medium (Thermo Fisher Scientific, Inc., Waltham, Mass.) supplemented with 10% v/v heat-inactivated fetal bovine serum (FBS) (Thermo Fisher Scientific, Inc., Waltham, Mass.), and 1× penicillin-streptomycin antibiotic solution (Thermo Fisher Scientific, Inc., Waltham, Mass.). The cells were diluted to 1,000,000 cells/mL in the supplemented RPMI 1640 medium. 50 μL of either the cell suspension, for the mass spectrometry assay, or medium alone, for the cytotoxicity assay, were added to the low control wells, on the previously prepared 384-well compound plates, resulting in 50,000 cells/well or 0 cells/well respectively. IFN-γ and LPS were added to the remaining cell suspension at final concentrations of 100 ng/ml and 50 ng/ml respectively, and 50 μL of the stimulated cells were added to all remaining wells on the 384-well compound plates. The plates, with lids, were then placed in a 37° C., 5% CO2 humidified incubator for 2 days.
as §3, with “and 40” for “and 10”

T1 sequence (P14902 whole entry): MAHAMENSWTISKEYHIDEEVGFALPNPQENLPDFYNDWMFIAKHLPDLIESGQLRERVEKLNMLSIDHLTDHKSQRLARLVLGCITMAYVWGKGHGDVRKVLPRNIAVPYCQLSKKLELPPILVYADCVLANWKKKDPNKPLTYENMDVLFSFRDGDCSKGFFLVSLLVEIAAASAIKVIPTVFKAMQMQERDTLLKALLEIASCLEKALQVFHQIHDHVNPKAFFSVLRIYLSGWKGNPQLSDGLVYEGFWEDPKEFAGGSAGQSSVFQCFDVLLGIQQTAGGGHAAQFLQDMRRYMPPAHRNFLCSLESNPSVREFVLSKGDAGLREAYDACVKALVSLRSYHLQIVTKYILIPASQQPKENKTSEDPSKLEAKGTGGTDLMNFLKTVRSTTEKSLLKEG

SMILES	EC50 [1]	EC50 [2]
CCCC(CCC)Oc1ccc(-c2ccccc2-c2nnn[nH]2)cc1Nc1nc2ccccc2o1 [Example 16, N-(4-(Heptan-4-yloxy)-2′-(1H-tetrazol-5-yl)-[1,1′-biphenyl]-3-yl)benzo[d]oxazol-2-amine]	100 nM	63.1 nM
CC(C)CN(c1ccc(-c2ccccc2C(=O)O)cc1Nc1nc(C(F)(F)F)ns1)C1CCCCC1 [Example 17, 4′-(Cyclohexyl(isobutyl)amino)-3′((3-(trifluoromethyl)-1,2,4-thiadiazol-5-yl)amino)-[1,1′-biphenyl]-2-carboxylic acid]	2 nM	1 nM
CC(C)CN(c1ccc(-c2ccccc2-c2nnn[nH]2)cc1Nc1nc(C(F)(F)F)ns1)C1CCCCC1 [Example 18, N^4-cyclohexyl-N^4-isobutyl-2′-(1H-tetrazol-5-yl)-N^3-(3-(trifluoromethyl)-1,2,4-thiadiazol-5-yl)-[1,1′-biphenyl]-3,4-diamine]	2.51 nM	1.26 nM
CC(C)CN(c1ccc(-c2ccccc2-c2nnn[nH]2)cc1Nc1nc2ccccc2[nH]1)C1CCCCC1 [Example 19, N^3-(1H-benzo[d]imidazol-2-yl)-N^4-cyclohexyl-N^4-isobutyl-2′-(1H-tetrazol-5-yl)-[1,1′-biphenyl]-3,4-diamine]	6.31 nM	1.58 nM
CC(C)CN(c1ccc(-c2ccccc2C(=O)O)cc1Nc1nnc(C2CC2)s1)C1CCCCC1 [Example 20, 4′-(Cyclohexyl(isobutyl)amino)-3′((5-cyclopropyl-1,3,4-thiadiazol-2-yl)amino)-[1,1′-biphenyl]-2-carboxylic acid]	2 nM	0.794 nM
CC(C)CN(c1ccc(-c2ccccc2-c2nnn[nH]2)cc1Nc1nnc(C2CC2)s1)C1CCCCC1 [Example 21, N^4-Cyclohexyl-N^3-(5-cyclopropyl-1,3,4-thiadiazol-2-yl)-N^4-isobutyl-2′-(1H-tetrazol-5-yl)-[1,1′-biphenyl]-3,4-diamine]	3.16 nM	1.58 nM
